Data on 31 compounds can be found in ChEMBL document CHEMBL5291721, “A preclinical secondary pharmacology resource illuminates target-adverse drug reaction associations of marketed drugs” (Nat Commun, 2023).

In test [1] the target is T1, Corticotropin-releasing factor receptor 1 (Homo sapiens, UniProt P34998).
T1 sequence (P34998 whole entry): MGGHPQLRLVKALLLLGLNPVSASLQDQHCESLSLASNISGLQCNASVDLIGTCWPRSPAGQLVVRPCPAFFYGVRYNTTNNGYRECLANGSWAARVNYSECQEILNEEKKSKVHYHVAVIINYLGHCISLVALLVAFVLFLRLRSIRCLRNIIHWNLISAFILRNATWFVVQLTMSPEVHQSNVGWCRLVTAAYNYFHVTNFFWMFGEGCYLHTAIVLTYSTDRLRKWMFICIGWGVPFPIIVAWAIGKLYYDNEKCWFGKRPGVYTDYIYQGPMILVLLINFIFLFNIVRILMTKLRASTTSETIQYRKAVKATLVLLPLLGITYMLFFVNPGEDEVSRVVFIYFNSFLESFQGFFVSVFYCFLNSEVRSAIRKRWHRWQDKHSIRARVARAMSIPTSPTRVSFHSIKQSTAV

Another test deals with T2, Progesterone receptor (Homo sapiens, UniProt P06401).
T2 sequence (P06401 whole entry): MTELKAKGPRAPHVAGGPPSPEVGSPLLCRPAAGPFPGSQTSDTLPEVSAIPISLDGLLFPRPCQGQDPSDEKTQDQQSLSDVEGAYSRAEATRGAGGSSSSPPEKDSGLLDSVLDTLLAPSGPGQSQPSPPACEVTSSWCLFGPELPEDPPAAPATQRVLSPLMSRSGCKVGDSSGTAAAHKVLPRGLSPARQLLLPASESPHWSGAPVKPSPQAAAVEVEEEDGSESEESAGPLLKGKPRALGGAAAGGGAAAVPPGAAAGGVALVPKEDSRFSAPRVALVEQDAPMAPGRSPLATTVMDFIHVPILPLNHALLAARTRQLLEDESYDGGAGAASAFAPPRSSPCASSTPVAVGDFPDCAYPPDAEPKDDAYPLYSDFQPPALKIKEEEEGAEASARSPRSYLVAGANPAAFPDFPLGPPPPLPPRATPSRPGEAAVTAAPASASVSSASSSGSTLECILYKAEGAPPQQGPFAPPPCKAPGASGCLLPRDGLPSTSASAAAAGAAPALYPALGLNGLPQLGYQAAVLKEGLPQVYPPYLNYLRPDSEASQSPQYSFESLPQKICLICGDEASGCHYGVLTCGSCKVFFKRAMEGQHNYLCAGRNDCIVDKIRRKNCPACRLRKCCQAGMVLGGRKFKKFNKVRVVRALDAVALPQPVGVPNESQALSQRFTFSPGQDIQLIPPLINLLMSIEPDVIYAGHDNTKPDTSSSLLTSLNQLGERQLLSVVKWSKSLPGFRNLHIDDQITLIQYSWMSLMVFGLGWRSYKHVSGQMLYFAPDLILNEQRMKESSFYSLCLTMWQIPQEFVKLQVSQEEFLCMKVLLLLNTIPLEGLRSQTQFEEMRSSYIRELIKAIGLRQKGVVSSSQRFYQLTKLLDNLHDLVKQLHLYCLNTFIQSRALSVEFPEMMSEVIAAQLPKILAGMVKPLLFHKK

For a further test, the target named is Glucagon receptor (Homo sapiens, UniProt P47871).
Chain of Glucagon receptor (P47871 whole entry): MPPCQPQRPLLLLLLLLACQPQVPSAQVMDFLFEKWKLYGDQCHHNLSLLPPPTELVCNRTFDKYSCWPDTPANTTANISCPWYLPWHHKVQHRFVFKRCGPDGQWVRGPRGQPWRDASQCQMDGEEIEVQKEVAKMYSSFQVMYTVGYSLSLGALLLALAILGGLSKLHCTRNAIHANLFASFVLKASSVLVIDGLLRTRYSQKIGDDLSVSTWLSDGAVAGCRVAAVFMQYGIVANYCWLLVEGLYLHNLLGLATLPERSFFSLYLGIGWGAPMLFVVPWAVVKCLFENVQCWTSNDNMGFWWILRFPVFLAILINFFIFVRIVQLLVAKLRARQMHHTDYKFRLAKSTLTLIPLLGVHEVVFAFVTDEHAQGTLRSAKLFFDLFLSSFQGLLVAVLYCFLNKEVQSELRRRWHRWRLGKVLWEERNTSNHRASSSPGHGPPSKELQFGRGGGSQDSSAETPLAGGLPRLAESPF
In test [2] the target is T3, Corticotropin-releasing factor receptor 2 (Homo sapiens, UniProt Q13324).
T3 sequence (Q13324 whole entry): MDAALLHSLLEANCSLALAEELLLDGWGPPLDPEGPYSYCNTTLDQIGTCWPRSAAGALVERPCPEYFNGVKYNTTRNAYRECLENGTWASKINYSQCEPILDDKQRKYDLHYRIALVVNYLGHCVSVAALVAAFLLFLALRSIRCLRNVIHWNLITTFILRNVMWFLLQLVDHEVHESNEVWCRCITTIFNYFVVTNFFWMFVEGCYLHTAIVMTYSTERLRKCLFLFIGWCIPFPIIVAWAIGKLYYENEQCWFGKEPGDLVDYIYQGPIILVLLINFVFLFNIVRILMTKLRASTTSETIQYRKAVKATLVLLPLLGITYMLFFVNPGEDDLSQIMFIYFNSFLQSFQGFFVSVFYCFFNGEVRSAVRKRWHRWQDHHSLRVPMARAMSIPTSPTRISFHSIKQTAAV

Test [3] deals with T4, 5-hydroxytryptamine receptor 1A (Homo sapiens, UniProt P08908).
T4 sequence (P08908 whole entry): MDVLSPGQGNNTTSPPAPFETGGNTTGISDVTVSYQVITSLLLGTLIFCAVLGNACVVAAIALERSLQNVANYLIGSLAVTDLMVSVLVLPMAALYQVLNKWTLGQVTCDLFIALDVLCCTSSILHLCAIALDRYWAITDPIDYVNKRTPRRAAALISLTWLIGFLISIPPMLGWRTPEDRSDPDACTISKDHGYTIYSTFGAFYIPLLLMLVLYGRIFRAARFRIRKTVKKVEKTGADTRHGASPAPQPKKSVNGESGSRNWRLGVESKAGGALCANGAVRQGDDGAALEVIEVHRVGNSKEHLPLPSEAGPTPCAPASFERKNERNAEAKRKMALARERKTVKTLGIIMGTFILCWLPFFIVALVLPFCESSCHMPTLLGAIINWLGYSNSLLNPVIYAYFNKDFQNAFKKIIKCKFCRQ

The target of test [4] is T5, Endothelin receptor type B (Homo sapiens, UniProt P24530).
T5 sequence (P24530 whole entry): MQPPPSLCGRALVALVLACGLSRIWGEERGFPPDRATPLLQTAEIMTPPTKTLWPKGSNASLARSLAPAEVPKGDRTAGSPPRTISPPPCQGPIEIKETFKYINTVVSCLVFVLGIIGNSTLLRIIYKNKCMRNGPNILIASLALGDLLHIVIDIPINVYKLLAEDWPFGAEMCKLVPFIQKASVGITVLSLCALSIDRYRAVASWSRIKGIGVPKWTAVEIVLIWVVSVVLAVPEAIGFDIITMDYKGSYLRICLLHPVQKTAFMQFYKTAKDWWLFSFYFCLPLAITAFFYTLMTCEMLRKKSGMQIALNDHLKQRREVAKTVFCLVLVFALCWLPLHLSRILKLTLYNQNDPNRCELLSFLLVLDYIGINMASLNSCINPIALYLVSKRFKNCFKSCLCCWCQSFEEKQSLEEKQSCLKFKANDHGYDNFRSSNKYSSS

Test [5] addresses Gamma-aminobutyric acid receptor subunit alpha-1/alpha-2/beta-2/gamma-2 (Homo sapiens, UniProt P14867+P18507+P47869+P47870). The class given is functional, cell-based.

Where only a bound is given, the exact number is not on record here.
Note: assay procedure not described here.

Chain of Gamma-aminobutyric acid receptor subunit alpha-1/alpha-2/beta-2/gamma-2 (P14867 whole entry): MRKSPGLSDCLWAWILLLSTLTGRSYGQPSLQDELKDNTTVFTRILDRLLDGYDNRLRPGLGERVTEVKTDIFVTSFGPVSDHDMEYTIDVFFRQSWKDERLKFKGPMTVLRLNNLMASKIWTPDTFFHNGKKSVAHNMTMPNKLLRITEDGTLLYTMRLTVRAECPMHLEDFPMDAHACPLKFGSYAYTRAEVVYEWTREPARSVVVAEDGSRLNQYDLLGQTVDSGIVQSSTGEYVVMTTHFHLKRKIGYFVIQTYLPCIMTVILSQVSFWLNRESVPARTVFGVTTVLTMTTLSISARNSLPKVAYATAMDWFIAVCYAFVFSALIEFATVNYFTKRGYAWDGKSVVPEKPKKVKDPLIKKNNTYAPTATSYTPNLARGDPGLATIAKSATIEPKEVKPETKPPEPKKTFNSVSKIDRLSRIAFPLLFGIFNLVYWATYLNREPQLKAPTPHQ
Chain of Gamma-aminobutyric acid receptor subunit alpha-1/alpha-2/beta-2/gamma-2 (P47870 whole entry): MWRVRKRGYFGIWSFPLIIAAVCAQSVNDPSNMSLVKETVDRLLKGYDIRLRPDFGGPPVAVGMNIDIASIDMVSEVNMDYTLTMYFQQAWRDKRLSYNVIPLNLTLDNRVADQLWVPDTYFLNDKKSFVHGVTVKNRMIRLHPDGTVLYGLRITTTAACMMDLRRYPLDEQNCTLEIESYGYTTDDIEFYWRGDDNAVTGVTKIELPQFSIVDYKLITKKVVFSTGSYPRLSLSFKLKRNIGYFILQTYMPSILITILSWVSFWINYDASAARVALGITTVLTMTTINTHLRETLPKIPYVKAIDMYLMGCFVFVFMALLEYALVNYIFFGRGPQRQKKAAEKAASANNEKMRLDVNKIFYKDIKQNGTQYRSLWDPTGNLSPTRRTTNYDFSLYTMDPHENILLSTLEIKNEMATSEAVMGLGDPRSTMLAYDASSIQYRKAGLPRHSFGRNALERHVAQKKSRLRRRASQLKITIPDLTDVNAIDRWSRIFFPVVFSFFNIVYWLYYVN
Chain of Gamma-aminobutyric acid receptor subunit alpha-1/alpha-2/beta-2/gamma-2 (P18507 whole entry): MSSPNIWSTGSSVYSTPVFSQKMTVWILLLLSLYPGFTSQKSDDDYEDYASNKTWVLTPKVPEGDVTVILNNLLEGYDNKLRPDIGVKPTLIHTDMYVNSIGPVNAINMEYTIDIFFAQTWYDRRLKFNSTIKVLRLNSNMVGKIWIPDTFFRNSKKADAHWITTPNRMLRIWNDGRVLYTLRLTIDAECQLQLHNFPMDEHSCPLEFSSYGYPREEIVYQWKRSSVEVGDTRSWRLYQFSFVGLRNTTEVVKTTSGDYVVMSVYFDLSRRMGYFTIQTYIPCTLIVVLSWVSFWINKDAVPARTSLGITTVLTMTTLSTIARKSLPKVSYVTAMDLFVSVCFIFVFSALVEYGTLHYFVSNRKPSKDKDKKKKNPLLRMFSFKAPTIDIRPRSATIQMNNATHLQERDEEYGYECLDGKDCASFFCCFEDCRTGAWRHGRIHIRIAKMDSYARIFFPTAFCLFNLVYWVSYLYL
Chain of Gamma-aminobutyric acid receptor subunit alpha-1/alpha-2/beta-2/gamma-2 (P47869 whole entry): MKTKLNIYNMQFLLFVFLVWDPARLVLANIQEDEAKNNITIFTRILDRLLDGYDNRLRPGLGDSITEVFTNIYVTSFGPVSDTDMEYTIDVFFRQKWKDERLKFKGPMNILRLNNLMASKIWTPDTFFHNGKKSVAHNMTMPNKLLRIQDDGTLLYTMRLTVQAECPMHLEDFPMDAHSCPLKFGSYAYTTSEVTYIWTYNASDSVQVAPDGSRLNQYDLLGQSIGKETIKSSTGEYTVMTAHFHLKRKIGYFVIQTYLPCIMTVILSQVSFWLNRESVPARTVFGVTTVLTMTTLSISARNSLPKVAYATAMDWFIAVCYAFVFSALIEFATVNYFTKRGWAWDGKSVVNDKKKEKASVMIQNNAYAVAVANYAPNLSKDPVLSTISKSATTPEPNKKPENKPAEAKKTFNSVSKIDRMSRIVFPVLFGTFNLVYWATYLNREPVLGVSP

The term AC50 denotes the concentration giving half of the maximal activity seen. Higher therefore signals activity only at high concentration. For the compound `CC1=C(CC(=O)O)c2cc(F)ccc2/C1=C\c1ccc([S+](C)[O-])cc1` (centres undefined), the AC50 is above 30 µM in test [1]; above 30 µM on Progesterone receptor; above 30 µM at Glucagon receptor; above 30 µM in test [2]; above 10 µM in test [3]; above 30 µM in test [4].
For `NS(=O)(=O)c1ccc(N2CCCCS2(=O)=O)cc1`, the AC50 in test [5] was above 30 µM.
As to `O=C(O[C@H]1C[N+]2(CCCOc3ccccc3)CCC1CC2)C(O)(c1cccs1)c1cccs1` [ACLIDINIUM BROMIDE], the AC50 is above 30 µM in test [1]; above 30 µM on Progesterone receptor; above 30 µM at Glucagon receptor; above 30 µM in test [2]; above 10 µM in test [3]; above 30 µM in test [4].
As for `Cc1nnc2n1-c1ccc(Cl)cc1C(c1ccccc1)=NC2` [ALPRAZOLAM], the AC50 in test [1] is above 30 µM; at Progesterone receptor it was above 30 µM; on Glucagon receptor, above 30 µM; in test [2], above 30 µM; in test [3], above 10 µM; in test [4], above 30 µM.
In test [5], `COc1ccc(-n2nc(C(N)=O)c3c2C(=O)N(c2ccc(N4CCCCC4=O)cc2)CC3)cc1` [APIXABAN] had an AC50 above 30 µM.
On the same count and under the same terms, the value for `CCN(CC)CCCN(c1ccccc1)C1Cc2ccccc2C1` [APRINDINE] was above 30 µM.
Turning to `CC(NC(C)(C)C)C(=O)c1cccc(Cl)c1` (centres undefined) [BUPROPION], the AC50 was above 30 µM in test [1]; above 30 µM on Progesterone receptor; above 30 µM at Glucagon receptor; above 30 µM in test [2]; above 10 µM in test [3]; above 30 µM in test [4].
In the case of `CC(=O)OCC1=C(C(=O)O)N2C(=O)[C@@H](NC(=O)Cc3cccs3)[C@H]2SC1` [CEPHALOTHIN], the AC50 in test [5] was above 30 µM.
In turn, `CC1=C(C(=O)O)N2C(=O)[C@@H](NC(=O)[C@H](N)C3=CCC=CC3)[C@H]2SC1` [CEPHRADINE] displayed an AC50 in test [5] above 30 µM.
Still for that read-out and setting: the figure for `COc1ccc(C(Cl)=C(c2ccc(OC)cc2)c2ccc(OC)cc2)cc1` [CHLOROTRIANISENE] is above 30 µM.
In the case of `Oc1cc(O)c2c(c1)O[C@H](c1ccc(O)c(O)c1)[C@@H](O)C2` [CIANIDANOL], the AC50 was above 30 µM in test [1]; above 30 µM at Progesterone receptor; above 30 µM at Glucagon receptor; above 30 µM in test [2]; above 10 µM in test [3]; above 30 µM in test [4].
For `O=C1CN=C(c2ccccc2Cl)c2cc([N+](=O)[O-])ccc2N1` [CLONAZEPAM], the AC50 in test [1] was above 30 µM; on Progesterone receptor it was above 30 µM; on Glucagon receptor, above 30 µM; in test [2] it was above 30 µM; in test [3], above 10 µM; in test [4] it was above 30 µM.
Regarding `C=C(c1ccccc1OCc1cccc(Cl)c1)n1ccnc1` [CROCONAZOLE], in test [3], the AC50 is above 10 µM.
As to `CCCCCCOC(=O)NC(=N)c1ccc(NCc2nc3cc(C(=O)N(CCC(=O)OCC)c4ccccn4)ccc3n2C)cc1` [DABIGATRAN ETEXILATE], the AC50 in test [5] was above 30 µM.
With `CCN(CC)C(C)C(=O)c1ccccc1` (centres undefined) [DIETHYLPROPION], the AC50 in test [1] was above 30 µM; at Progesterone receptor it was 0.22 µM; on Glucagon receptor it was above 30 µM; in test [2], above 30 µM; in test [3] it was above 10 µM; in test [4], above 30 µM.
The compound `OCCN(CCO)c1nc(N2CCCCC2)c2nc(N(CCO)CCO)nc(N3CCCCC3)c2n1` [DIPYRIDAMOLE] returned an AC50 on Progesterone receptor above 30 µM.
For `CCN1C(=O)NC(c2ccccc2)C1=O` (centres undefined) [ETHOTOIN], in test [5], the AC50 was above 30 µM.
As for `Cc1ccc(-c2ncc(Cl)cc2-c2ccc(S(C)(=O)=O)cc2)cn1` [ETORICOXIB], the AC50 in test [1] is above 30 µM; on Progesterone receptor, above 30 µM; at Glucagon receptor it was above 30 µM; in test [2], above 30 µM; in test [3] it was above 10 µM; in test [4], above 30 µM.
As to `Cc1cnc(Nc2ccc(OCCN3CCCC3)cc2)nc1Nc1cccc(S(=O)(=O)NC(C)(C)C)c1` [FEDRATINIB], the AC50 on Progesterone receptor was above 30 µM; in test [3], above 10 µM.
In the case of `CCOC(=O)C1=C(C)NC(C)=C(C(=O)OC)C1c1cccc(Cl)c1Cl` (centres undefined) [FELODIPINE], the AC50 in test [1] was above 30 µM; on Progesterone receptor, 2.6 µM; at Glucagon receptor it was above 30 µM; in test [2], above 30 µM; in test [3], above 10 µM; in test [4] it was above 30 µM.
Turning to `N=C(N)NC(=O)Cc1c(Cl)cccc1Cl` [GUANFACINE], the AC50 at Progesterone receptor was above 30 µM; in test [3], 11.5 µM.
For `CC1Cc2ccccc2N1NC(=O)c1ccc(Cl)c(S(N)(=O)=O)c1` (centres undefined) [INDAPAMIDE], the AC50 in test [3] was above 10 µM.
Consider `CCC(=O)O[C@H](CC(=O)O)C[N+](C)(C)C` [LEVOCARNITINE PROPIONATE], for which the AC50 in test [5] was above 30 µM.
`CCN(CC)CC(=O)Nc1c(C)cccc1C` [LIDOCAINE]: the AC50 (in test [1]; at Progesterone receptor; on Glucagon receptor; in test [2]; in test [4]) was above 30 µM each time.
`O=C(O)c1nn(Cc2ccc(Cl)cc2Cl)c2ccccc12` [LONIDAMINE] returned an AC50 in test [5] above 30 µM.
In the case of `Nc1cc(N2CCCCC2)nc(N)[n+]1[O-]` [MINOXIDIL], the AC50 is above 30 µM at Progesterone receptor and above 10 µM in test [3].
`COC(=O)c1ccc2c(c1)NC(=O)/C2=C(\Nc1ccc(N(C)C(=O)CN2CCN(C)CC2)cc1)c1ccccc1` [NINTEDANIB]: the AC50 in test [5] was above 30 µM.
`CS(=O)(=O)NC(=O)CCC/C=C\C[C@H]1C(=O)C[C@@H](O)[C@@H]1/C=C/[C@@H](O)COc1ccccc1` [SULPROSTONE] returned an AC50 in test [5] above 30 µM.
On the same count and under the same terms, the value for `CCCCCCCC(=O)CC[C@@H]1[C@@H](C/C=C\CCCC(=O)O)[C@@H](O)C[C@H]1O` [UNOPROSTONE] was above 30 µM.
Turning to `CCN(C(C)=O)c1cccc(-c2ccnc3c(C#N)cnn23)c1` [ZALEPLON], in test [3], the AC50 is above 10 µM.
Take TEPRENONE: the AC50 was above 30 µM at Progesterone receptor and above 10 µM in test [3].
